# Tests used:
# [1] = Stability in mouse plasma assessed as half life; format: ADME, cell-free
# [2] = Metabolic stability in mouse liver microsomes assessed as half life; format: ADME, Microsome
# [3] = biological target: T1, Protein deacetylase HDAC6 (Homo sapiens, UniProt Q9UBN7); experiment: Inhibition of human full-length recombinant HDAC6 incubated for 2 hrs by fluorescence based analysis
# T1 sequence (Q9UBN7 whole entry): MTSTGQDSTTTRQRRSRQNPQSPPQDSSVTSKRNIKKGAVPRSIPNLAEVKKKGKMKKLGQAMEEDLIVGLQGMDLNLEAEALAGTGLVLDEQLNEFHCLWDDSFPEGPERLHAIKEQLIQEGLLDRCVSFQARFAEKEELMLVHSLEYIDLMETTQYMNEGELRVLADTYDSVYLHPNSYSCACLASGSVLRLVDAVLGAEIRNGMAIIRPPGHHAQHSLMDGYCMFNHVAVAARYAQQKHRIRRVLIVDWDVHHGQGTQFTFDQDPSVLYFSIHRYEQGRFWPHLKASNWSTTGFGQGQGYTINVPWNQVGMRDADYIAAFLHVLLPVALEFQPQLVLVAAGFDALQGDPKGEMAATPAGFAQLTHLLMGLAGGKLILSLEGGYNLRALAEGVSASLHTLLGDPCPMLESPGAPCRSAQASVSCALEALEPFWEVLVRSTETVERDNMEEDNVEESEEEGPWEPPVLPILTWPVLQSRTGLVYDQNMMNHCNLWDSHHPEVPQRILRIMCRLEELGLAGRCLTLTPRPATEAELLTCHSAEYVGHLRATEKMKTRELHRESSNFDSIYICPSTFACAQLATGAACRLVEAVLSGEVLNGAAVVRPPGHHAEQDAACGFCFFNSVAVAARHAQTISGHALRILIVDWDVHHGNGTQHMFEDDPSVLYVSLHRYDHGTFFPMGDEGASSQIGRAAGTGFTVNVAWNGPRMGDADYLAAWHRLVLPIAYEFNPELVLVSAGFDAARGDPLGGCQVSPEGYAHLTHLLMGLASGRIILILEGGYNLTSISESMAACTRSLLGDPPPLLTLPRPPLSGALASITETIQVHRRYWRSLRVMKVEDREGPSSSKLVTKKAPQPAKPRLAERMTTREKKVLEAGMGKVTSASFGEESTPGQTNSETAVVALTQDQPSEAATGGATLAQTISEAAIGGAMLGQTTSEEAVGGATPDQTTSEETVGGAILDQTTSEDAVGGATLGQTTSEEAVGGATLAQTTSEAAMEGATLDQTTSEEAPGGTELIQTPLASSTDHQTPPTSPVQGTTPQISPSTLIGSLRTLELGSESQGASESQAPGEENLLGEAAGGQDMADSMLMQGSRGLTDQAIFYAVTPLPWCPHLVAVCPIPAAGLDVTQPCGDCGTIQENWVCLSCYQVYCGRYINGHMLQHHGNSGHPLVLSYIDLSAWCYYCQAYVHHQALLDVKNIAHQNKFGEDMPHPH
# [4] = biological target: Histone deacetylase 1 (Homo sapiens, UniProt Q13547); experiment: Inhibition of human full-length recombinant HDAC1 incubated for 2 hrs by fluorescence based analysis
# [5] = biological target: T2, Histone deacetylase 8 (Homo sapiens, UniProt Q9BY41); experiment: Inhibition of human recombinant HDAC8
# T2 sequence (Q9BY41 whole entry): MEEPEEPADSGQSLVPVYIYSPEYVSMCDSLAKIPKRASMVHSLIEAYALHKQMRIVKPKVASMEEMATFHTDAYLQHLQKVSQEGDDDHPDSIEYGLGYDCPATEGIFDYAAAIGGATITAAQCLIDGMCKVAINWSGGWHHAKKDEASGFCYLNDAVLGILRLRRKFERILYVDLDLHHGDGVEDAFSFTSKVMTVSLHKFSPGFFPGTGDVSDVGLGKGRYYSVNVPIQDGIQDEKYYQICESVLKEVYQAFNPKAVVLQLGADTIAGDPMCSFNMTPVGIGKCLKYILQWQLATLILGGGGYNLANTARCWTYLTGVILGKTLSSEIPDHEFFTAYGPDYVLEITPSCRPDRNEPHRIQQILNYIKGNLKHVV
# [6] = test system: A2780; experiment: Antiproliferative activity against human A2780 cells assessed as cell growth inhibition; format: functional, cell-based
# [7] = biological target: Histone deacetylase; format: cell-based, Homo sapiens; conditions: hela
# [8] = test system: HEK-293T; experiment: Antiproliferative activity against HEK293T cells assessed as inhibition of cell growth by MTT assay; format: functional, cell-based; conditions: Homo sapiens
# [9] = test system: MCF7; experiment: Antiproliferative activity against human MCF7 cells assessed as inhibition of cell growth by MTT assay; format: functional, cell-based
# [10] = test system: HeLa; experiment: Antiproliferative activity against human HeLa cells assessed as inhibition of cell growth by MTT assay; format: functional, cell-based
# [11] = test system: K562; experiment: Antiproliferative activity against human K562 cells assessed as inhibition of cell growth by MTT assay; format: functional, cell-based
# Sequence of Histone deacetylase 1 (Q13547 whole entry): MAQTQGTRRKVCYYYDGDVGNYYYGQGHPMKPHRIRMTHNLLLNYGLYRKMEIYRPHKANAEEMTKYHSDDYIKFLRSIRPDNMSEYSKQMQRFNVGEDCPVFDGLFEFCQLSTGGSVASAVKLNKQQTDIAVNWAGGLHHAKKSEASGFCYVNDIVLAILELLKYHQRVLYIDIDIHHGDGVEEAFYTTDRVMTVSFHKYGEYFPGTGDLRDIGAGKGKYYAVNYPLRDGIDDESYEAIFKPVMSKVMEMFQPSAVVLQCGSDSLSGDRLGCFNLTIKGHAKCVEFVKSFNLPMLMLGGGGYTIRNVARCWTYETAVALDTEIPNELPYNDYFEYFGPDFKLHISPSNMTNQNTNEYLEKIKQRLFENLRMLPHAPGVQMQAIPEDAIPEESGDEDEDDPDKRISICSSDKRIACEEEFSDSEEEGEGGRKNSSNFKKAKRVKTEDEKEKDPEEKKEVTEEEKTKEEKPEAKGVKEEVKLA
smiles,measurement,setting,value
Nc1ccccc1NC(=O)CCCCCCC(=O)Nc1ccccc1,half-life,[1],1.9 h
same,half-life,[2],1.9 h
Cc1onc(-c2ccccc2)c1C(=O)NCCCCCCC(=O)NO,IC50,[3],0.18 µM
same,IC50,[4],3 µM
CP(=O)([O-])CCCCCCC(=O)Nc1ccccc1.[Li+],IC50,[5],390 µM
same,IC50,[6],110 µM
same,IC50,[7],8200 µM
O=C(CCCCCSc1nc[nH]n1)Nc1ccccc1,IC50,[8],11.1 µM
same,IC50,[9],11.1 µM
same,IC50,[10],11.1 µM
same,IC50,[11],11.1 µM
same,IC50,[7],8.1 µM

# Source: ChEMBL document CHEMBL5352506, “The Zinc-Binding Group Effect: Lessons from Non-Hydroxamic Acid Vorinostat Analogs” (J Med Chem, 2023)
